The results in this text go back to patent publication EP4678638A1, “NEW E3 UBIQUITIN LIGASE LIGAND, PROTEIN DEGRADATION AGENT AND USE THEREOF” (priority 2023, dated 2024).

The subject of test [1] is TMD8. Kind of test: CCK-8 proliferation, TMD8. Type of test: cell-based. The following applies: Homo sapiens, TMD8; CCK-8; 72 hours; read-out: Inhibitory activity (IC50) on tumor cell proliferation, TMD8. How it is done:
(§1) The tumor cells used herein were cultured in a cell culture medium listed in table A1 at 37°C in an incubator with 5% CO2. Prior to experimentation, all cell lines used were correctly identified by STR profiling, and tested negative for mycoplasma contamination using a mycoplasma detection kit through routine screenings. Table A1. Tumor cells and cell culture medium used in the present disclosure
(§2) IC50 values of the compounds of the present disclosure (including the compounds in Table 1, and compounds of examples) were measured using the Meilun Cell Counting Kit-8 kit from Dalian Meilun Biotech Co., Ltd. Assay details are as follows: tumor cells were seeded in a 96-well plate at a density listed in Table A2. After 24h, 100 µL of the inoculated cells were treated with 0.5µL of the compounds of the present disclosure (including the compounds in Tables 1 and 2, and compounds of examples) at 10 different successively decreasing concentrations (starting at the highest concentration of 10µM; 5-fold serial dilutions). After the cells were treated with the compounds of the present disclosure for a period of time, the cell viability detection reagent was added to the culture medium for cell viability assessment according to the instructions provided with the CCK-8 kit. […] The growth inhibition of the compounds of the present disclosure on cells was plotted by Prism Graphpad software, and the IC50 values of the compounds of the present disclosure were calculated therefrom. […] Seeding protocol and treatment time for tumor cells

Test [2] has as its system DU-145. Description: CCK-8 proliferation, DU-145. The test is classed as cell-based. The conditions noted are these: Homo sapiens, 96 hours, read-out: Inhibitory activity (IC50) on tumor cell proliferation, DU-145. How it is done:
as §1, §2

Test [3] deals with CCRF-CEM. Kind of test: CCK-8 proliferation, CCRF-CEM. Type of test: cell-based, Human. The following applies: Homo sapiens, CCRF-CEM; CCK-8; 96 hours; read-out: Inhibitory activity (IC50) on tumor cell proliferation, CCRF-CEM. In a few lines: (§3)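 CCK-8 viability readout; IC50 from growth-inhibition curve fitting. Cells plated, dosed 24h later with a 10-point series, top 10µM, 5-fold steps. Culture at 37°C, 5% CO2.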

Test [4] concerns Jurkat. Description: CCK-8 proliferation, Jurkat. The following applies: Homo sapiens, Jurkat; CCK-8; 96 hours; read-out: Inhibitory activity (IC50) on tumor cell proliferation, Jurkat. The test is classed as cell-based, Human. The method in brief: as §3
The test system of test [5] is SU-DHL-4. Description: CCK-8 proliferation, SU-DHL-4. Type of test: cell-based. The following applies: Homo sapiens, 72 hours, read-out: Inhibitory activity (IC50) on tumor cell proliferation, SU-DHL-4. How it is done: as §1, §2
Test [6] deals with T1, CDK9 (Homo sapiens, UniProt P50750).
T1 construct: evaluate the effects of the compounds of the present disclosure on the expression of target proteins in cells; endogenous in cells; host or cells: MDA-MB-231
Description: Western blot degradation of CDK9 (MDA-MB-231 Cell). The conditions noted are these: Table D13. The test is classed as cell-based. How it is done:
Conventional Western blot assay was performed to evaluate the effects of the compounds of the present disclosure on the expression of target proteins in cells.
(1) Cell Seeding and Protein Harvesting: The selected cells were processed according to the cell seeding procedure and protein harvesting procedure in Table III-2. Table III-2 Cell Seeding and Protein Harvesting Procedures
(2) To the collected supernatant, 5X SDS sample loading buffer was added, followed by denaturation at 95°C for 5 minutes. The denatured samples were then separated by SDS-PAGE electrophoresis on a polyacrylamide gel. Proteins were transferred to a nitrocellulose membrane (0.45 µm NC membrane), blocked with blocking buffer at room temperature for 1 hour, and subjected to antibody incubation and development procedures according to the antibody manufacturer's instructions (Cell Signaling Technology).
Half-Maximal Degradation Concentration value (the drug concentration required for degrading proteins by 50%, abbreviated as DC50) reads method: comparing the grayscale values of Western blot bands from drug-treated samples with those from blank DMSO-treated controls, and identifying the drug concentration range at which the grayscale value is half that of the DMSO-treated control bands.
DC50 values can be calculated using ImageJ software to measure grayscale values of Western blot bands from drug-treated samples. The concentration-response curve is fitted to estimate the drug concentration corresponding to half the grayscale value.
Target protein remaining (%) refers to the percentage of target protein remaining in hPBMC cells after treatment with protein degrader compounds.
Calculation method for target protein remaining (%): Use ImageJ software to measure grayscale values of Western blot bands from drug (protein degrader)-treated samples. The grayscale value of drug-treated bands is divided by that of internal control protein bands, and the resulting quotient is normalized to obtain the relative percentage of remaining target protein after protein degrader treatment.
Target protein degradation rate (%) = 100% - target protein remaining (%).
On the technique in general: A western blot detects proteins with antibodies after separation by electrophoresis.

The target in test [7] is T2, human Cereblon WT GST-tagged protein (Homo sapiens, UniProt Q96SW2).
T2 construct: purchased CISBIO 64BDCRBNPEH
Description: CRBN binding, HTRF (CEREBLON BINDING kit). The conditions noted are these: Table II-2, CRBN binding screening, HTRF. The method in brief:
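After 3 h at room temperature, emission at 665 and 620 nm was measured in a homogeneous time-resolved fluorescence format. Compounds competed with a Thalidomide-Re probe for GST-tagged wild-type human CRBN, which was labelled with a Eu anti-GST antibody.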
A general note: In TR-FRET formats the signal depends on donor and acceptor labels being close together.

In test [8] the test system is BXPC-3. Kind of test: CCK-8 proliferation, BXPC-3. The conditions noted are these: Homo sapiens, 96 hours, read-out: Inhibitory activity (IC50) on tumor cell proliferation, BXPC-3. Type of test: cell-based. How it is done:
as §1, §2

The subject of test [9] is MGC-803. Kind of test: CCK-8 proliferation, MGC-803 (heads: MGC80-3, MGC803). Type of test: cell-based, Human. The conditions noted are these: Homo sapiens, MGC-803; CCK-8; 72 hours; read-out: Inhibitory activity (IC50) on tumor cell proliferation, MGC80-3. In a few lines: as §3
For test [10], the system named is THP-1. Kind of test: CCK-8 proliferation, THP-1. The test is classed as cell-based. The following applies: Homo sapiens, 72 hours, read-out: Inhibitory activity (IC50) on tumor cell proliferation, THP-1. How it is done:
as §1, §2

Test [11] concerns H520. Kind of test: CCK-8 proliferation, H520. The conditions noted are these: Homo sapiens, NCI-H520, 96 hours, read-out: Inhibitory activity (IC50) on tumor cell proliferation, H520. The test is classed as cell-based. How it is done: as §1, §2

T1 sequence (P50750 whole entry): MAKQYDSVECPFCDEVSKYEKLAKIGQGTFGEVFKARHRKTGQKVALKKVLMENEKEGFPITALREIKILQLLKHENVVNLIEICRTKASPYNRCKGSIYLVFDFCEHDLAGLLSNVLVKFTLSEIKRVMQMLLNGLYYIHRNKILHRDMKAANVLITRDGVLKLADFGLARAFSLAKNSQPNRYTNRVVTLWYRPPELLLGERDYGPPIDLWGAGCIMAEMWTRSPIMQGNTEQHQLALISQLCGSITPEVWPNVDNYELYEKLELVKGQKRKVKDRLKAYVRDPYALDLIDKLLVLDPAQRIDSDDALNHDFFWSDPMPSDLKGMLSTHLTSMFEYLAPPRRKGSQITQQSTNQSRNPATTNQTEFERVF
T2 sequence (Q96SW2 whole entry): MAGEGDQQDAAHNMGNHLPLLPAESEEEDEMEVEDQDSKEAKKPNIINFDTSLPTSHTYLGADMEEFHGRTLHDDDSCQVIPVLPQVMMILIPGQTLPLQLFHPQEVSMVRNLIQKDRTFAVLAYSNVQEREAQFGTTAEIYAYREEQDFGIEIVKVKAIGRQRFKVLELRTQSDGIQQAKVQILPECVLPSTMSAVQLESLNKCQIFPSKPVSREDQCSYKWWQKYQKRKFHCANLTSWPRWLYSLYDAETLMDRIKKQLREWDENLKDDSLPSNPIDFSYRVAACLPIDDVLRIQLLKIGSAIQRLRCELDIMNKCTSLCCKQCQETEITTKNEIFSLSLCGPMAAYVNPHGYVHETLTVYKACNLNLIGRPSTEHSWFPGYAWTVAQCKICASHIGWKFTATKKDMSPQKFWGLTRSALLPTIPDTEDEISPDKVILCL

As for `O=C(NC1CCNCC1)c1[nH]ncc1NC(=O)c1c(Cl)cccc1Cl` [AT7519, reference compound], the IC50 in [1] is 500 to 1000 nM; in [2] it was 500 to 1000 nM; in [3], 500 to 1000 nM; in [4] it was 100 to 500 nM; in [5], 100 to 500 nM.
As for `Cn1ncc(-c2nc(NC3CCN(Cc4ccc(C5CCC(=O)NC5=O)cc4)CC3)ncc2Cl)c1CC1CC1` (stereo not drawn) [GT-04050, 3-(4-((4-((5-chloro-4-(5-(cyclopropylmethyl)-1-methyl-1H-pyrazol-4-yl)pyrimidin-2-yl)amino)piperidin-1-yl)methyl)phenyl)piperidine-2,6-dione], the IC50 fell in the range of 10 to 50 nM in [2] and 100 to 500 nM in test [4]. In test [6], the “Degradation of substrate protein CDK9 (substrate protein remaining %)” value (from here on “Degradation … (substrate protein remaining %)”) is given as “A (A is defined as 0% ≤ substrate protein remaining % ≤ 80%)”.
As to `Cn1ncc(-c2nc(NC3CCN(Cc4ccc(C5CCC(=O)NC5=O)c(F)c4)CC3)ncc2Cl)c1CC1CC1` (stereo not drawn) [GT-04051, 3-(4-((4-((5-chloro-4-(5-(cyclopropylmethyl)-1-methyl-1H-pyrazol-4-yl)pyrimidin-2-yl)amino)piperidin-1-yl)methyl)-2-fluorophenyl)piperidine-2,6-dione], the IC50 in test [1] fell in the range of 500 to 1000 nM; in test [2] it was 100 to 500 nM; in test [3], 500 to 1000 nM; in test [5] it was 500 to 1000 nM. Further, the “Degradation … (substrate protein remaining %)” value in [6] is “A (A is defined as 0% ≤ substrate protein remaining % ≤ 80%)”.
Consider `N#CC1(CNc2nc(-c3cc(NC4CCN(Cc5ccc(C6CCC(=O)NC6=O)cc5)CC4)ncc3Cl)cs2)CCOCC1` (stereo not drawn) [GT-04074, 4-(((4-(5-chloro-2-((1-(4-(2,6-dioxopiperidin-3-yl)benzyl)piperidin-4-yl)amino)pyridin-4-yl)thiazol-2-yl)amino)methyl)tetrahydro-2H-pyran-4-carbonitrile], for which, in [6], the “Degradation … (substrate protein remaining %)” value was “A (A is defined as 0% ≤ substrate protein remaining % ≤ 80%)”.
Consider `O=C1CCC(c2ccc(CN3CCC(n4cc(NC(=O)c5coc(-c6ccnc(NCC(F)(F)F)c6)n5)c(C(F)F)n4)CC3)cc2F)C(=O)N1` (stereo not drawn) [GT-04087, N-(3-(difluoromethyl)-1-(1-(4-(2,6-dioxopiperidin-3-yl)-3-fluorobenzyl)piperidin-4-yl)-1H-pyrazol-4-yl)-2-(2-((2,2,2-trifluoroethyl)amino)pyridin-4-yl)oxazole-4-carboxamide], for which the IC50 in test [1] is 50 to 100 nM; in [2], 500 to 1000 nM; in test [3], 1 to 10 nM; in [4] it was 10 to 50 nM; in [5], 500 to 1000 nM. In addition, in test [6], the “Degradation … (substrate protein remaining %)” value is on record as “A (A is defined as 0% ≤ substrate protein remaining % ≤ 80%)”.
With `O=C1CCC(c2ccc(CN3CCC(n4cc(NC(=O)c5coc(-c6ccnc(NCC(F)(F)F)c6)n5)c(C(F)F)n4)CC3)cc2)C(=O)N1` (stereo not drawn) [GT-04121, N-(3-(difluoromethyl)-1-(1-(4-(2,6-dioxopiperidin-3-yl)benzyl)piperidin-4-yl)-1H-pyrazol-4-yl)-2-(2-((2,2,2-trifluoroethyl)amino)pyridin-4-yl)oxazole-4-carboxamide], the IC50 in test [1] lay within 100 to 500 nM; in [2], 100 to 500 nM; in [3], 10 to 50 nM; in test [4], 100 to 500 nM; in [5], 500 to 1000 nM. Besides, in test [7] (at 0.5µM), the “Inhibition rate (%) at 0.5µM” value is recorded as “a2 (20% < a2 ≤ 30%)”. For the same molecule, the “Inhibition rate (%) at 2 µM” value in [7] (at 2 µM) was “a6 (60% < a6 ≤ 80%)”. For the same molecule, the “Degradation … (substrate protein remaining %)” value in [6] is “A (A is defined as 0% ≤ substrate protein remaining % ≤ 80%)”.
Consider `Cc1ccc(-c2c(C)noc2C)cc1N(CC1CCN(Cc2ccc(N3CCC(=O)NC3=O)c(F)c2)CC1)c1ccc(C2(C#N)CC2)cc1` [GT-04843, 1-(4-((5-(3,5-dimethylisoxazol-4-yl)-2-methylphenyl)((1-(4-(2,4-dioxotetrahydropyrimidin-1(2H)-yl)-3-fluorobenzyl)piperidin-4-yl)methyl)amino)phenyl)cyclopropane-1-carbonitrile], for which the IC50 in test [8] lay within 100 to 500 nM; in [9], 100 to 500 nM; in test [10], 500 to 1000 nM; in [11], 500 to 1000 nM.
As for `Cc1ccc(-c2c(C)noc2C)cc1N(CC1CCN(Cc2ccc(N3CCC(=O)NC3=O)cc2)CC1)c1ccc(C2(C#N)CC2)cc1` [GT-04844, 1-(4-((5-(3,5-dimethylisoxazol-4-yl)-2-methylphenyl)((1-(4-(2,4-dioxotetrahydropyrimidin-1(2H)-yl)benzyl)piperidin-4-yl)methyl)amino)phenyl)cyclopropane-1-carbonitrile], the IC50 was in the range of 100 to 500 nM in test [8], 100 to 500 nM in test [9], 500 to 1000 nM in test [10] and 500 to 1000 nM in test [11].
As for `Cc1ccc(-c2c(C)noc2C)cc1N(CC1CCN(Cc2ccc(N3CCC(=O)NC3=O)cc2F)CC1)c1ccc(C2(C#N)CC2)cc1` [GT-04973, 1-(4-((5-(3,5-dimethylisoxazol-4-yl)-2-methylphenyl)((1-(4-(2,4-dioxotetrahydropyrimidin-1(2H)-yl)-2-fluorobenzyl)piperidin-4-yl)methyl)amino)phenyl)cyclopropane-1-carbonitrile], the IC50 in test [8] was in the range of 100 to 500 nM; in test [9], 500 to 1000 nM; in test [10], 500 to 1000 nM; in test [11] it was 500 to 1000 nM.
In the case of `C[C@]12CC[C@H](O)CC1=CC[C@@H]1[C@@H]2CC[C@]2(C)C(c3cccnc3)=CC[C@@H]12` [abiraterone], the IC50 in test [8], in [9], in [10], in test [2] and in [11] was over 10000 nM in each case.
